Experimental data as given in paper PMC3502156, “Anti-plasmodial action of de novo-designed, cationic, lysine-branched, amphipathic, helical peptides” (Malaria Journal, 2012).
Like-named read-outs stand apart in the source and are kept apart here. Starred links: 1 amine or outer side, 2 acyl side, 3 side chain; linkers in the order of their positions; H or OH if unused. Positions of bridges follow the written chain, without caps; N, C: chain ends. Non-standard residues stand in square brackets, D forms with d. Residues, ends and D or L forms follow the SMILES beside them. Chains are numbered I, II in the order given. X1 = O=C(/C(=C/c1ccccc1)N[*:1])[*:2]; X2 = O=C(C(=Cc1ccccc1)N[*:1])[*:2]

How the values were obtained:
[1] = system: P. falciparum 3D7 (chloroquine-sensitive); assay: microbe, parasite or virus in culture; assay type: cell-based, Plasmodium falciparum
Procedure: (§1) Chloroquine-sensitive (3D7) and CQ-resistant (Dd2 and INDO) strains of P. falciparum were maintained in continuous culture according to the method of Trager and Jensen with minor modifications. Cultures were maintained in fresh group O^+ve human erythrocytes suspended at 4% haematocrit in complete medium {16.2 g/L RPMI 1640 containing 25 mM HEPES, 11.11 mM glucose (Gibco), 0.2% sodium bicarbonate (Sigma), 0.5% Albumax I (Gibco), 45 μg/litre hypoxanthine (Sigma) and 50 μg/litre gentamicin (Gibco)} and incubated at 37°C under a gas mixture 5% O2, 5% CO2, and 90% N2. Every day, the spent medium was replaced by fresh complete medium to propagate the culture. […] Parasitaemia was monitored by microscopic examination of Giemsa-stained blood smears. Synchronized ring stage parasite was obtained by 5% sorbitol treatment. Trophozoites and schizont-stage parasites were enriched by using Percoll gradient.
(§2) Stock solutions of peptides and CQ were prepared in water (milli-Q grade) while artemisinin stock solution was in dimethyl sulphoxide (DMSO). All stocks were then diluted with culture medium to achieve the required drug concentrations. The concentration of peptide solution in water was based on A280 [ϵ (M^-1 cm^-1) ΔF (didehydrophenylalanine) 19,000, W (Tryptophan) 5,000)]. Thus ϵ280 were 62,000, 124,000, 124,000 and 248,000 for ΔFm, (ΔFm)2, ΔFd and ΔFq respectively. The concentration of FITC-peptides was based on A495 [ϵ(M^-1 cm^-1) FITC 77,000 for (ΔFm)2 with one FITC and 154,000 for ΔFd with two FITC per molecule]. Drugs and peptides solutions were placed in 96-well flat bottom tissue culture grade plates (Corning).
(§3) For drug screening, SYBR green I based fluorescence assay was used as described previously by Smilkstein et al.[30]. Sorbitol synchronized ring stage parasites (haematocrit: 2%, parasitaemia: 1%, 100 μl) under normal culture conditions were incubated in the absence or presence of increasing concentrations of peptides in water. CQ and artemisinin were used as positive controls. […] After 48 hr of incubation 100 μl of SYBR Green I buffer [0.2 μl of 10,000 X SYBR Green I (Invitrogen) per ml of lysis buffer {Tris (20 mM; pH 7.5), EDTA (5 mM), saponin (0.008%; wt/vol), and Triton X-100 (0.08%; vol/vol)}] was added to each well, mixed twice gently with multi-channel pipette and incubated in dark at 37 °C for 1 h. Fluorescence was measured with a Victor fluorescence multi-well plate reader (Perkin Elmer) with excitation and emission wavelength centred at 485 and 530 nm, respectively. Fluorescence counts for CQ (0.1 μM for 3D7, 1 μM for INDO) were subtracted from counts in each well. The fluorescence counts were plotted against the drug concentration and IC50 (the 50% inhibitory concentration) was determined by analysis of dose–response curves. Results of the above mentioned fluorescence-based assay were validated microscopically by examination of Giemsa-stained smears of peptide-treated parasite cultures. Statistical significance of relative potencies of peptides was determined by student’s T test.

[2] = system: uninfected erythrocytes (URBC); assay: Haemolysis assay, uninfected red cells; assay type: cell-based, human
Procedure: (§4) Selectivity of haemolysis by peptides for infected erythrocytes (PRBC) vs uninfected erythrocytes (URBC) was examined by incubating the test molecules with URBCs and PRBCs respectively in phosphate-buffered saline (PBS). Briefly, fresh RBCs were spin washed (1600 RPM; 5 min) three times in PBS and re-suspended in PBS at 2% haematocrit. A 100 μl suspension was added to 96-well plate containing the peptides at different concentrations. […] After incubation at 37°C for 3 hr, the samples were centrifuged and supernatant was used to determine the haemolytic activity measured in terms of haemoglobin release as monitored by […]. Triton-treated control samples were diluted 10-fold before reading absorbance. […] Percent haemolysis has been expressed with reference to 100% haemolysis value assigned to positive control (triton X 100 treated RBCs). To study haemolytic susceptibility of parasitized cells, URBCs were replaced with varying percentages (10% and 20%) of mixed stage parasitized cells. […] Haemolysis of parasitized erythrocytes was also monitored microscopically by examining the Giemsa-stained smears. Parasitaemia of ΔFd treated and untreated cultures were microscopically counted for ring, trophozoite and schizont stages respectively. Susceptibility of different stages was compared with corresponding untreated control cultures.

[3] = system: infected erythrocytes (PRBC); assay: Haemolysis assay, parasitized red cells; assay type: cell-based, Plasmodium falciparum; conditions: up to 40 μM, 3 hr, A415
Procedure: as §4

[4] = system: P. falciparum Dd2 (CQ-resistant); assay: microbe, parasite or virus in culture; assay type: cell-based, Plasmodium falciparum; conditions: for Resistance index IC50 Dd2/ IC50 3D7: IC50 CQ resistant strain/ IC50 CQ sensitive strain
Procedure: as §1, §2, §3

[5] = system: P. falciparum 3D7 (chloroquine-sensitive); assay: microbe, parasite or virus in culture; assay type: cell-based, Plasmodium falciparum; remark: listed apart in the source
[6] = system: Plasmodium-infected RBCs (PRBC); assay: Fluorescence microscopy of FITC-peptide localization; assay type: cell-based, Plasmodium falciparum; conditions: 2-3 μM, 30 min, 37°C, complete medium
Procedure: For studying peptide localization, P. falciparum cultures were individually incubated with FITC-ΔFd (2 μM), FITC-(ΔFm)2 (2 μM) or FITC-Insulin (3 μM) a) alone and b) together with DAPI in complete medium at 37°C for 30 min and the cells were spin washed (1,600 RPM, 5 min) twice with 1 X PBS to reduce background fluorescence. The cells were smeared on a glass slide, and fluorescence was visualized by using the respective filter settings for FITC and DAPI.
For studying the selectivity and route of transport of ΔFd into the red cell-resident malaria parasite, URBC and PRBC were incubated with FITC-ΔFd (4 μM) in parallel sets at 4°C vs at room temperature (25°C) for specified times and spin washed (1,600 RPM, 2 min) with complete medium (3 X 200 μl). The cells were smeared on a glass slide and both bright field images and fluorescence images (using FITC filter) were captured at 100 X magnification using Nikon eclipse fluorescence microscope. The software Adobe Photoshop was used to overlay the fluorescence image on the bright field image.

[7] = ring stage synchronized, haematocrit 2%, parasitaemia 1%, 48 hr, SYBR Green I fluorescence, ± SD of three independent observations, read-out: IC50 P. falciparum 3D7
[8] = 2% haematocrit in PBS, 37°C, 3 hr, haemoglobin release A415, 100% = 0.4% Triton X-100, ± SD of three independent observations
[9] = 3D7 (chloroquine-sensitive, 48 h)

Compound | IC50 [1, 9] | IC50 ([4]; Dd2 (CQ-resistant, 48 h)) | HC50 URBC ([2]; 3 h) | Hemolytic Selectivity index (HC50 URBC/ IC50 Pf 3D7) ([2]; 3 h) | other results
CC(C)C[C@H](NC(=O)[C@H](CCC(N)=O)NC(=O)[C@@H]1CCCN1C(=O)[C@H](CC(C)C)NC(=O)[C@H](CC(=O)O)NC(=O)[C@@H](NC(=O)[C@@H](NC(=O)[C@H](Cc1c[nH]cn1)NC(=O)[C@@H]1CCCN1C(=O)[C@H](CC(C)C)NC(=O)[C@@H]1CCCN1C(=O)[C@@H]1CCCN1C(=O)[C@H](C)NC(=O)[C@H](CO)NC(=O)[C@@H]1CCCN1C(=O)[C@H](CCCNC(=N)N)NC(=O)[C@@H](NC(=O)[C@H](C)NC(=O)CNC(=O)[C@H](CC(C)C)NC(=O)[C@@H]1CCCN1C(=O)[C@H](C)NC(=O)[C@H](CO)NC(=O)[C@H](Cc1c[nH]cn1)NC(=O)[C@H](CC(=O)O)NC(=O)[C@@H]1CCCN1C(=O)[C@@H]1CCCN1C(=O)[C@@H](N)CC(N)=O)[C@@H](C)O)C(C)C)C(C)C)C(=O)NCC(=O)N1CCC[C@H]1C(=O)O [E30, reference compound] (H-NPPDHSAPLGATRPSAPPLPHVVDLPQLGP-OH) | – | – | – | – | IC50 [1, 7]: > 40000 nM; HC50 URBC [2, 8]: > 40 µM; haemolysis of infected red cells by control peptides [3]: not to show any haemolysis
Insulin: bovine insulin (Sigma), control peptide [reference compound] | – | – | – | – | IC50 [1, 7]: > 40000 nM; HC50 URBC [2, 8]: > 40 µM; haemolysis of infected red cells by control peptides [3]: not to show any haemolysis
CC(=O)NCC(=O)NC(=Cc1ccccc1)C(=O)N[C@@H](CCCNC(=N)N)C(=O)N[C@@H](CCCCN)C(=O)NC(=Cc1ccccc1)C(=O)N[C@@H](Cc1c[nH]cn1)C(=O)N[C@@H](CCCCN)C(=O)NC(=Cc1ccccc1)C(=O)N[C@@H](Cc1c[nH]c2ccccc12)C(=O)N[C@@H](C)C(=O)N[C@@H](C)C(=O)NCC(=O)NC(=Cc1ccccc1)C(=O)N[C@@H](CCCNC(=N)N)C(=O)N[C@@H](CCCCN)C(=O)NC(=Cc1ccccc1)C(=O)N[C@@H](Cc1c[nH]cn1)C(=O)N[C@@H](CCCCN)C(=O)NC(=Cc1ccccc1)C(=O)N[C@@H](Cc1c[nH]c2ccccc12)C(=O)N[C@@H](C)C(N)=O [(ΔFm)2] (Ac-G[X2]RK[X2]HK[X2]WAAG[X2]RK[X2]HK[X2]WA-NH2) | 2400 ± 150 nM | 2500 ± 130 nM | > 50 µM | > 20 | Resistance index IC50 Dd2/ IC50 3D7 [4]: 1.04; increment in potency at 96 hr (two cycles) vs 48 hr (one cycle) ([5]; P. falciparum 3D7, SYBR Green assay): 1.5 fold
C[C@H](NC(=O)[C@H](C)NC(=O)[C@H](CCCCN)NC(=O)[C@H](Cc1c[nH]cn1)NC(=O)[C@@H]1CCCN1C(=O)[C@H](CCC(=O)O)NC(=O)[C@@H](N)CCC(=O)O)C(=O)N[C@@H](CO)C(=O)N[C@@H](C)C(=O)N[C@@H](CCC(=O)O)C(=O)NCC(=O)N[C@@H](CCCCN)C(=O)N[C@@H](CCCCN)C(=O)O [Prochitinase, reference compound] (H-EEPHKAASAEGKK-OH) | > 40000 nM | – | > 40 µM | – | –
CC(=O)NCC(=O)N[C@@H](Cc1ccccc1)C(=O)N[C@@H](CCCNC(=N)N)C(=O)N[C@@H](CCCCN)C(=O)N[C@@H](Cc1ccccc1)C(=O)N[C@@H](Cc1c[nH]cn1)C(=O)N[C@@H](CCCCN)C(=O)N[C@@H](Cc1ccccc1)C(=O)N[C@@H](Cc1c[nH]c2ccccc12)C(=O)N[C@@H](C)C(=O)NCCCC[C@H](NC(=O)[C@H](C)NC(=O)[C@H](Cc1c[nH]c2ccccc12)NC(=O)[C@H](Cc1ccccc1)NC(=O)[C@H](CCCCN)NC(=O)[C@H](Cc1c[nH]cn1)NC(=O)[C@H](Cc1ccccc1)NC(=O)[C@H](CCCCN)NC(=O)[C@H](CCCNC(=N)N)NC(=O)[C@H](Cc1ccccc1)NC(=O)CNC(C)=O)C(N)=O [Fd] (I: Ac-GFRKFHKFWAK-NH2 / II: Ac-GFRKFHKFWA; amide I:11-II:C; N-terminus and C-terminus assumed) | 1500 ± 80 nM | – | > 50 µM | > 33 | –
CC(=O)NCC(=O)N[C@@H](Cc1ccccc1)C(=O)N[C@@H](CCCNC(=N)N)C(=O)N[C@@H](CCCCN)C(=O)N[C@@H](Cc1ccccc1)C(=O)N[C@@H](Cc1c[nH]cn1)C(=O)N[C@@H](CCCCN)C(=O)N[C@@H](Cc1ccccc1)C(=O)N[C@@H](Cc1c[nH]c2ccccc12)C(=O)N[C@@H](C)C(N)=O [Fm] (Ac-GFRKFHKFWA-NH2) | > 100000 nM | > 100000 nM | >100 µM | – | –
FITC-insulin: FITC-Insulin (Sigma), control for uptake | – | – | – | – | uptake of FITC-labelled peptide by parasitized cells [6]: no accumulation
CCN(CC)CCCC(C)Nc1ccnc2cc(Cl)ccc12 (stereo not drawn) [Chloroquine, reference compound] | – | – | – | – | Resistance index IC50 Dd2/ IC50 3D7 [4]: 4; IC50 ([4]; Plasmodium falciparum, DD2, 48 h, read-out: IC50 P. falciparum Dd2): 160 nM; IC50 ([5]; Plasmodium falciparum, 3D7, 48 h, read-out: IC50 P. falciparum 3D7): 40 nM
I: Ac-G[X1]RK[X1]HK[X1]WAKK-NH2 / II: Ac-G[X1]RK[X1]HK[X1]WAK / III: Ac-G[X1]RK[X1]HK[X1]WA / IV: Ac-G[X1]RK[X1]HK[X1]WA (amide I:11-IV:C, I:12-II:C, II:11-III:C; N-terminus and C-terminus assumed) [ΔFq] | 250 ± 20 nM | – | 2.5 ± 0.13 µM | 10 | –
CC(=O)NCC(=O)NC(=Cc1ccccc1)C(=O)N[C@@H](CCCNC(=N)N)C(=O)N[C@@H](CCCCN)C(=O)NC(=Cc1ccccc1)C(=O)N[C@@H](Cc1c[nH]cn1)C(=O)N[C@@H](CCCCN)C(=O)NC(=Cc1ccccc1)C(=O)N[C@@H](Cc1c[nH]c2ccccc12)C(=O)N[C@@H](C)C(N)=O [ΔFm] (Ac-G[X2]RK[X2]HK[X2]WA-NH2) | > 100000 nM | > 100000 nM | >100 µM | – | –
